Measurements from patent publication US12624034B2, “Non-covalent modifiers of AKT1 and uses thereof” (Terremoto Biosciences, Inc., priority 2023, dated 2026).
Like-named read-outs stand apart in the source and are kept apart here.

Key:
AKT1 WT = target: T1, AKT1 WT (Homo sapiens, UniProt P31749); test: Live cell AKT1 WT target engagement by NanoBRET competitive probe displacement in HEK293 cells; type: binding; details: 2 h at 37° C., read-out: AKT1 WT IC50
T1 construct: expressed in transfected cells; host or cells: HEK293

AKT2 = target: T2, AKT2 (Homo sapiens, UniProt P31751); test: Live cell AKT2 target engagement by NanoBRET competitive probe displacement in HEK293 cells; type: binding; details: 2 h at 37° C., read-out: AKT2 IC50
T2 construct: expressed in transfected cells; host or cells: HEK293

[1] = NanoBRET live cell target engagement, HEK293 cells
[2] = NanoBRET competitive probe displacement, live HEK293 cells

T2 sequence (P31751 whole entry): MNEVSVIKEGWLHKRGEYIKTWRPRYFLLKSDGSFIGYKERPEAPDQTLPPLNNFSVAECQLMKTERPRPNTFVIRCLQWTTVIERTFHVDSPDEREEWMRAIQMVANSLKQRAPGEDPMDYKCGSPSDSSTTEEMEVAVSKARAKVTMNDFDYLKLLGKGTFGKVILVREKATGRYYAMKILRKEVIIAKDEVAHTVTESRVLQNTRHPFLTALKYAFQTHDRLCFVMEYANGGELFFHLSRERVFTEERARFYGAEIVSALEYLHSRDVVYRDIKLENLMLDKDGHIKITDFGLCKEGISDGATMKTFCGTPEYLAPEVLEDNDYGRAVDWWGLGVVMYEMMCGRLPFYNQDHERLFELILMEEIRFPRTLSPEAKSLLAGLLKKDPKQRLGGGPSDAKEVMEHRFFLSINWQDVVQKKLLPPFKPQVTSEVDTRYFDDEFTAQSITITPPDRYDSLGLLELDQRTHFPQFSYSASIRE
T1 sequence (P31749 whole entry): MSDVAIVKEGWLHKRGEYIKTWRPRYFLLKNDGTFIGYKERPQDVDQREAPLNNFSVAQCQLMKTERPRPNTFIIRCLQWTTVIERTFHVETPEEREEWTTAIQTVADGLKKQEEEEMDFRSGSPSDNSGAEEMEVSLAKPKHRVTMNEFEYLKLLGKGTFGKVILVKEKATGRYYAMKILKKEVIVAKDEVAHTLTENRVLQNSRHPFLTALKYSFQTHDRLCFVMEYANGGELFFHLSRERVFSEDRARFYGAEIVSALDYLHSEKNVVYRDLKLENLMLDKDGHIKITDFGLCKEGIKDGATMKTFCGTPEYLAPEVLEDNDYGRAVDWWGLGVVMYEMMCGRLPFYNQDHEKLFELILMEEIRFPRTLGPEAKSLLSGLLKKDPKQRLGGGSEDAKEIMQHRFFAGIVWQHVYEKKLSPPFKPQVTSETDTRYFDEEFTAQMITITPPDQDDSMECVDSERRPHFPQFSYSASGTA

IC50 (AKT1 WT; [1]) | IC50 (AKT2; [1]) | IC50 (AKT1 WT; [2]) | IC50 (AKT2; [2]) | Compound
19.5 nM | 540 nM |  |  | Nc1ncccc1-c1nc2ccc(-n3cccn3)nc2n1-c1ccc2c(c1)CC[C@@H]2NC(=O)c1cccnc1C(F)F [Compound 79]
13.9 nM | 54.8 nM |  |  | COc1cc(-n2cccn2)nc2c1nc(-c1cccnc1N)n2-c1ccc2c(c1)CC[C@@H]2NC(=O)c1cccnc1C [Compound 124]
 |  | 45.2 nM | 1540 nM | COCc1ccn(-c2ccc3nc(-c4cccnc4N)n(-c4ccc5c(c4)CC[C@@H]5NC4CCN(C(=O)C5CC5)CC4)c3n2)n1 [Compound 590]
5.16 nM | 31.7 nM |  |  | Cc1cc(C(=O)N[C@H]2CCc3cc(-n4c(-c5cccnc5N)nc5ccc(-n6cccn6)nc54)ccc32)cnc1C [Compound 115]
34.4 nM | 442 nM |  |  | COc1ncccc1C(=O)N[C@H]1CCc2cc(-n3c(-c4cccnc4N)nc4ccc(-n5cccn5)nc43)ccc21 [Compound 128]
35.9 nM | 1870 nM |  |  | CC#Cc1ccc2nc(-c3cccnc3N)n(-c3ccc4c(c3)CC[C@@H]4NC(=O)c3ccc(C)nc3)c2n1 [Compound 265]
6.71 nM | 42.3 nM |  |  | Nc1ncccc1-c1nc2ccc(-n3cccn3)nc2n1-c1ccc2c(c1)CC[C@@H]2NC(=O)c1ccc2[nH]ncc2c1 [Compound 193]
10.6 nM | 47.2 nM |  |  | Nc1ncccc1-c1nc2c(C(F)F)cc(-n3cccn3)nc2n1-c1ccc2c(c1)CC[C@@H]2NC(=O)c1ccc(C(F)F)nc1 [Compound 177, (S)—N-(5-(2-(2-aminopyridin-3-yl)-7-(difluoromethyl)-5-(1H-pyrazol-1-yl)-3H-imidazo[4,5-b]pyridin-3-yl)-2,3-dihydro-1H-inden-1-yl)-6-(difluoromethyl)nicotinamide]
7.33 nM | 18.8 nM |  |  | Nc1ncccc1-c1nc2ccc(-n3cccn3)nc2n1-c1ccc2c(c1)CC[C@@H]2NC(=O)c1cnc2c(c1)CCC2 [Compound 94]
31.5 nM | 576 nM |  |  | Cc1ncccc1CN[C@H]1CCc2cc(-n3c(-c4cccnc4N)nc4ccc(-n5cccn5)nc43)ccc21 [Compound 140]
 |  | 46.2 nM | 1580 nM | CC#Cc1ccc2nc(-c3cccnc3N)n(-c3ccc4c(c3)CC[C@@H]4NC(=O)c3ccc(C(F)F)nc3)c2n1 [Compound 405]
 |  | 77.4 nM | 808 nM | CC(C)(O)c1ccn(-c2ccc3nc(-c4cccnc4N)n(-c4ccc5c(c4)CC[C@@H]5NC4CCN(C(=O)C5CC5)CC4)c3n2)n1 [Compound 569]
 |  | 40 nM | 4660 nM | Nc1ncccc1-c1nc2ccc(-n3nccn3)nc2n1-c1ccc2c(c1)CC[C@@H]2NC(=O)c1cnns1 [Compound 436]
> 1000 nM | > 10000 nM |  |  | CC(C)NC(=O)N[C@H]1CCc2cc(-n3c(-c4cccnc4N)nc4ccc(-n5cccn5)nc43)ccc21 [Compound 134, (S)-1-(5-(2-(2-aminopyridin-3-yl)-5-(1H-pyrazol-1-yl)-3H-imidazo[4,5-b]pyridin-3-yl)-2,3-dihydro-1H-inden-1-yl)-3-isopropylurea]
 |  | 27.6 nM | 723 nM | Cn1ccc(N2CCC(N[C@H]3CCc4cc(-n5c(-c6cccnc6N)nc6ccc(-n7ccc(C8CCOCC8)n7)nc65)ccc43)CC2)n1 [Compound 549]
21.5 nM | 174 nM |  |  | Cc1cnc(C)c(C(=O)N[C@H]2CCc3cc(-n4c(-c5cccnc5N)nc5ccc(-n6cccn6)nc54)ccc32)c1 [Compound 137]
 |  | 83.5 nM | 2490 nM | Cc1ccc(C(=O)N[C@H]2CCc3cc(-n4c(-c5cccnc5N)nc5ccc(-n6cnc(C(F)F)n6)nc54)ccc32)cn1 [Compound 430]
40.9 nM | 830 nM |  |  | Cc1ccc(C(=O)N[C@H]2CCc3cc(-n4c(-c5cccnc5N)nc5ccc(-n6cccn6)nc54)ccc32)c(C(F)F)n1 [Compound 167]
9.18 nM | 120 nM |  |  | Nc1ncccc1-c1nc2ccc(-n3cccn3)nc2n1-c1ccc2c(c1)CC[C@@H]2NC(=O)c1ccc(Cl)cc1 [Compound 263]
 |  | 18.9 nM | 1280 nM | Nc1ncccc1-c1nc2ccc(-n3ccc(OC4CC4)n3)nc2n1-c1ccc2c(c1)CC[C@@H]2NC1CCN(C(=O)C2CC2)CC1 [Compound 497]
53.5 nM | 560 nM |  |  | Nc1ncccc1-c1nc2ccc(-n3cccn3)nc2n1-c1ccc2c(c1)CC[C@@H]2NC(=O)c1cnc2nccn2c1 [Compound 160]
90.8 nM | 3160 nM |  |  | Nc1ncccc1-c1nc2ccc(-n3cccn3)nc2n1-c1ccc2c(c1)CC[C@@H]2NC(=O)c1nccnc1C(F)F [Compound 119]
 |  | 25.1 nM | 1070 nM | CCOc1ccn(-c2ccc3nc(-c4cccnc4N)n(-c4ccc5c(c4)CC[C@@H]5NC4CCN(C(=O)C5CC5)CC4)c3n2)n1 [Compound 486]
9.53 nM | 52.7 nM |  |  | CN1Cc2cc(C(=O)N[C@H]3CCc4cc(-n5c(-c6cccnc6N)nc6ccc(-n7cccn7)nc65)ccc43)cnc2C1 [Compound 112]
23.1 nM | 502 nM |  |  | COc1cc(C(=O)N[C@H]2CCc3cc(-n4c(-c5cccnc5N)nc5ccc(-n6cccn6)nc54)ccc32)nn1C(F)F [Compound 324]

IC50 (AKT1 WT; [1]) | IC50 (AKT2; [1]) | IC50 (AKT1 WT; [2]) | IC50 (AKT2; [2]) | Compound
 |  | 18 nM | 404 nM | Nc1ncccc1-c1nc2ccc(-n3cccn3)nc2n1-c1ccc2c(c1)CC[C@@H]2NC1CCN(c2cccnc2)C1 (some centres unmarked) [Compound 472]
 |  | 9.92 nM | 198 nM | Nc1ncccc1-c1nc2ccc(-n3nccn3)nc2n1-c1ccc2c(c1)CC[C@@H]2NC(=O)c1cnc(C2CC2)s1 [Compound 520]
36.6 nM | 1590 nM |  |  | Nc1ncccc1-c1nc2ccc(-n3nccn3)nc2n1-c1ccc2c(c1)CC[C@@H]2NC(=O)c1cnc(C(F)F)c(F)c1 [Compound 121]
 |  | 72.6 nM | 1600 nM | Nc1ncccc1-c1nc2ccc(-n3ccc(C4CC4)n3)nc2n1-c1ccc2c(c1)CC[C@@H]2NC1CCN(C(=O)C2CC2)CC1 [Compound 442]
32.4 nM | 1030 nM |  |  | Nc1ncccc1-c1nc2ccc(-n3cccn3)nc2n1-c1ccc2c(c1)CC(F)[C@@H]2NC1CN(c2ccccn2)C1 (some centres unmarked) [Compound 208]
 |  | 109 nM | 3030 nM | Nc1ncccc1-c1nc2ccc(-n3cccn3)nc2n1-c1ccc2c(c1)CC[C@@H]2NC1CCN(C(=O)C2CC2)C1 (some centres unmarked) [Compound 461]
 |  | 20.2 nM | 1260 nM | Nc1ncccc1-c1nc2ccc(-n3nccn3)nc2n1-c1ccc2c(c1)CC[C@@H]2NC(=O)c1cnc(C(F)(F)F)s1 [Compound 526]
80 nM | 1270 nM |  |  | CN1CC(Oc2cc(C(=O)N[C@H]3CCc4cc(-n5c(-c6cccnc6N)nc6ccc(-n7cccn7)nc65)ccc43)ccn2)C1 [Compound 179]
 |  | 13.9 nM | 240 nM | COc1ccn(-c2ccc3nc(-c4cccnc4N)n(-c4ccc5c(c4)CC[C@@H]5NC4CCN(C(=O)C5CC5)CC4F)c3n2)n1 (some centres unmarked) [Compound 513]
76.3 nM | 3270 nM |  |  | Cc1cncc(C(=O)N[C@H]2CCc3cc(-n4c(-c5cccnc5N)nc5ccc(-n6cccn6)nc54)ccc32)n1 [Compound 186]
 |  | 249 nM | 2520 nM | Nc1ncccc1-c1nc2ccc(-n3ccc(OC(F)F)n3)nc2n1-c1ccc2c(c1)CC[C@@H]2NC1[C@@H]2COC[C@H]1CN(C(=O)C1CC1)C2 (some centres unmarked) [Compound 560]
 |  | 37.5 nM | > 10000 nM | Nc1ncccc1-c1nc2ccc(C#C[C@@H]3CCO3)nc2n1-c1ccc2c(c1)CC[C@@H]2NC(=O)c1ccc(C(F)F)nc1 [Compound 454]
 |  | 25.1 nM | 2910 nM | Nc1ncccc1-c1nc2ccc(-n3nccn3)nc2n1-c1ccc2c(c1)CC[C@@H]2NC(=O)c1cnc(C(F)F)o1 [Compound 538]
 |  | 91.1 nM | 2300 nM | Nc1ncccc1-c1nc2ccc(C#CC3COC3)nc2n1-c1ccc2c(c1)CC[C@@H]2NC(=O)c1ccc(C(F)F)nc1 [Compound 408]
 |  | 235 nM | 6740 nM | COCCN(C)[C@H]1CCc2cc(-n3c(-c4cccnc4N)nc4ccc(-n5cccn5)nc43)ccc21 [Compound 457]
 |  | 96.9 nM | 8940 nM | Nc1ncccc1-c1nc2ccc(C#CC3CC3)nc2n1-c1ccc2c(c1)CC[C@@H]2NC1CN(C(=O)C2CC2)C1 [Compound 506]
 |  | 64.4 nM | 1570 nM | Nc1ncccc1-c1nc2ccc(-c3ccn(C4CCOCC4)n3)nc2n1-c1ccc2c(c1)CC[C@@H]2NC1CCN(C(=O)C2CC2)CC1 [Compound 555]
 |  | 19.6 nM | 1390 nM | Cc1ccc(C(=O)N[C@H]2CCc3cc(-n4c(-c5cccnc5N)nc5ccc(C#CC6CC6)nc54)ccc32)cn1 [Compound 435]
 |  | > 1000 nM | 7230 nM | Nc1ncccc1-c1nc2ccc(-n3nccn3)nc2n1-c1ccc2c(c1)CC(F)[C@@H]2NC1CCN(C(=O)C2CC2)CC1 (single isomer, unassigned) [Compound 533]
21.9 nM | 83.5 nM |  |  | Nc1ncccc1-c1nc2ccc(-n3cccn3)nc2n1-c1ccc2c(c1)CC[C@@H]2NC(=O)c1cnc(C(F)F)cc1F [Compound 97]
13.2 nM | 52.6 nM |  |  | Nc1ncccc1-c1nc2ccc(-n3cccn3)nc2n1-c1ccc2c(c1)CC[C@@H]2NC(=O)c1ccc(CF)nc1 [Compound 98]
7.96 nM | 100 nM |  |  | Cc1ccc(C(=O)N[C@H]2CCc3cc(-n4c(-c5cccnc5N)nc5ccc(-c6cnn(C)n6)nc54)ccc32)cn1 [Compound 268]
41.8 nM | 1960 nM |  |  | Cc1coc(-c2ccc3nc(-c4cccnc4N)n(-c4ccc5c(c4)CC[C@@H]5n4ccnn4)c3n2)n1 [Compound 245, (S)-3-(3-(1-(1H-1,2,3-triazol-1-yl)-2,3-dihydro-1H-inden-5-yl)-5-(4-methyloxazol-2-yl)-3H-imidazo[4,5-b]pyridin-2-yl)pyridin-2-amine]
 |  | 42.8 nM | > 10000 nM | Nc1ncccc1-c1nc2ccc(-n3ccc(C4CCOCC4)n3)nc2n1-c1ccc2c(c1)CC[C@@H]2NC1CCN(C(=O)C2CC2)CC1 [Compound 487]
